Source: patent US20170003277A1 (priority 2015, published 2017)

Assays:
[1] = tested on: mouse splenocytes; test: Immunological cell type enrichment for genes modulated by GA in mouse splenocytes; format: cell-based; design: Score: scale not given here
Description: (§1) Genome-wide expression profiles in cells from three different datasets in two different species (human, mouse) were studied. LIMMA was utilized to identify a genome-wide list of differentially expressed genes induced by GA in the primed and ex vivo stimulated mouse splenocytes, as well as in the THP-1 human monocyte cell line. Repeated-measures ANOVA was utilized to find a genome-wide list of genes modulated by GA in treated MS patients. Advanced enrichment algorithms were then applied to elucidate the pathways and cell types modulated by GA.
(§2) In addition to the shared induced effects discussed above, each system and platform clearly captured different aspects of GA's impact on the immune system. […] In human PBMCs, genes associated with immune cell types were modulated early in treatment (by month 3), including certain cell types affected in prior systems, but also distinct cell types, such as megakaryocytes and myeloid progenitors (Table 11).

[2] = tested on: human PBMC; test: Immunological cell type enrichment for genes modulated by GA in human PBMC; format: in vivo; design: Score: scale not given here
Description: as §1, §2

[3] = B.GC.Sp.rnk, Upregulated (top 20 results)
[4] = DC.103.11b..LuLN.rnk, Downregulated (top 20 results)
[5] = DC.103.11b..PolyIC.Lu.rnk, Upregulated (top 20 results)
[6] = DC.103.11b.24..Lu.rnk, Upregulated (top 20 results)
[7] = DC.8.4.11b..SLN.rnk, Downregulated (top 20 results)
[8] = DC.Ilhilang.103.11b..SLN.rnk, Downregulated (top 20 results)
[9] = DC.Ilhilang.103.11blo.SLN.rnk, Downregulated (top 20 results)
[10] = DC.LC.Sk.rnk, Upregulated (top 20 results)
[11] = GN.Arth.BM.rnk, Downregulated (top 20 results)
[12] = GN.Arth.SynF.rnk, Downregulated (top 20 results)
[13] = GN.BI.rnk, Downregulated (top 20 results)
[14] = GN.BM.rnk, Downregulated (top 20 results)
[15] = GN.Thio.PC.rnk, Downregulated (top 20 results)
[16] = GN.UrAc.PC.rnk, Downregulated (top 20 results)
[17] = Mo.6C.Il..BM.rnk, Downregulated (top 20 results)
[18] = Mo.6C.Ilint.BI.rnk, Downregulated (top 20 results)
[19] = NK.H..MCMV1.Sp.rnk, Upregulated (top 20 results)
[20] = NK.MCMV1.Sp.rnk, Upregulated (top 20 results)
[21] = SC.CDP.BM.rnk, Downregulated (top 20 results)
[22] = SC.GMP.BM.rnk, Downregulated (top 20 results)
[23] = SC.MDP.BM.rnk, Downregulated (top 20 results)
[24] = SC.MEP.BM.rnk, Upregulated (top 20 results)
[25] = T.4FP3.25..AA.rnk, Upregulated (top 20 results)
[26] = T.4SP24int.Th.rnk, Downregulated (top 20 results)
[27] = T.8Eff.Sp.OT1.12hr.LisOva.rnk, Upregulated (top 20 results)
[28] = T.8Eff.Sp.OT1.24hr.LisOva.rnk, Upregulated (top 20 results)
[29] = T.8Eff.Sp.OT1.48hr.LisOva.rnk, Upregulated (top 20 results)
[30] = T.8Nve.Sp.OT1.rnk, Downregulated (top 20 results)
[31] = T.DPbl.Th.rnk, Upregulated (top 20 results)
[32] = T.ISP.Th.rnk, Upregulated (top 20 results)
[33] = Tgd.vg2.24ahi.e17.Th.rnk, Upregulated (top 20 results)
[34] = Tgd.vg3.24alo.e17.Th.rnk, Upregulated (top 20 results)
[35] = preB.FrC.BM.rnk, Upregulated (top 20 results)
[36] = preT.DN3B.Th.rnk, Upregulated (top 20 results)
[37] = preT.DN3.4.Th.rnk, Upregulated (top 20 results)
[38] = proB.CLP.BM.rnk, Downregulated (top 20 results)
[39] = proB.CLP.FL.rnk, Downregulated (top 20 results)
[40] = proB.FrA.FL.rnk, Upregulated (top 20 results)
[41] = proB.FrBC.FL.rnk, Upregulated (top 20 results)
[42] = BASO1.rnk, Upregulated, Cluster 2
[43] = BCELLA1.rnk, Downregulated, Cluster 0
[44] = BCELLA2.rnk, Downregulated, Cluster 0
[45] = BCELLA3.rnk, Downregulated, Cluster 0
[46] = BCELLA4.rnk, Downregulated, Cluster 0
[47] = CMP.rnk, Upregulated, Cluster 4
[48] = EOS2.rnk, Upregulated, Cluster 2
[49] = ERY1.rnk, Upregulated, Cluster 2
[50] = ERY1.rnk, Upregulated, Cluster 4
[51] = ERY2.rnk, Upregulated, Cluster 2
[52] = ERY2.rnk, Upregulated, Cluster 4
[53] = ERY3.rnk, Upregulated, Cluster 2
[54] = ERY3.rnk, Upregulated, Cluster 4
[55] = ERY4.rnk, Upregulated, Cluster 2
[56] = ERY4.rnk, Upregulated, Cluster 4
[57] = ERY5.rnk, Upregulated, Cluster 2
[58] = ERY5.rnk, Upregulated, Cluster 4
[59] = GMP.rnk, Upregulated, Cluster 4
[60] = GRAN1.rnk, Upregulated, Cluster 2
[61] = GRAN2.rnk, Upregulated, Cluster 4
[62] = HSC3.rnk, Upregulated, Cluster 4
[63] = MEGA1.rnk, Upregulated, Cluster 4
[64] = MEGA2.rnk, Upregulated, Cluster 0
[65] = MEGA2.rnk, Upregulated, Cluster 4
[66] = MEP.rnk, Upregulated, Cluster 2
[67] = PRE_BCELL3.rnk, Upregulated, Cluster 2

glatiramer acetate [Copaxone®]
Score [1, 3]: 602.5
p.val [1, 3]: 1.01E−12
Score [1, 4]: 1152
p.val [1, 4]: 2.47E−06
Score [1, 5]: 705
p.val [1, 5]: 1.44E−14
Score [1, 6]: 738.3
p.val [1, 6]: 8.91E−12
Score [1, 7]: 1117
p.val [1, 7]: 1.86E−07
Score [1, 8]: 1151
p.val [1, 8]: 9.94E−08
Score [1, 9]: 1112
p.val [1, 9]: 5.07E−08
Score [1, 10]: 709.9
p.val [1, 10]: 2.89E−15
Score [1, 11]: 1218
p.val [1, 11]: 0
Score [1, 12]: 1160
p.val [1, 12]: 2.72E−11
Score [1, 13]: 1185
p.val [1, 13]: 6.66E−15
Score [1, 14]: 1212
p.val [1, 14]: 1.11E−16
Score [1, 15]: 1197
p.val [1, 15]: 6.39E−14
Score [1, 16]: 1145
p.val [1, 16]: 5.87E−14
Score [1, 17]: 1095
p.val [1, 17]: 1.71E−06
Score [1, 18]: 1107
p.val [1, 18]: 1.62E−05
Score [1, 19]: 770.8
p.val [1, 19]: 7.11E−15
Score [1, 20]: 793.3
p.val [1, 20]: 1.51E−14
Score [1, 21]: 1078
p.val [1, 21]: 0
Score [1, 22]: 1341
p.val [1, 22]: 1.56E−05
Score [1, 23]: 1206
p.val [1, 23]: 1.56E−05
Score [1, 24]: 641.2
p.val [1, 24]: 0
Score [1, 25]: 697.6
p.val [1, 25]: 2.76E−11
Score [1, 26]: 1040
p.val [1, 26]: 0
Score [1, 27]: 683
p.val [1, 27]: 0
Score [1, 28]: 661.8
p.val [1, 28]: 5.97E−14
Score [1, 29]: 587.7
p.val [1, 29]: 0
Score [1, 30]: 1095
p.val [1, 30]: 0
Score [1, 31]: 659.3
p.val [1, 31]: 0
Score [1, 32]: 584.9
p.val [1, 32]: 0
Score [1, 33]: 620
p.val [1, 33]: 9.88E−13
Score [1, 34]: 620.8
p.val [1, 34]: 2.72E−11
Score [1, 35]: 620.2
p.val [1, 35]: 0
Score [1, 36]: 568
p.val [1, 36]: 1.64E−10
Score [1, 37]: 560.7
p.val [1, 37]: 2.96E−10
Score [1, 38]: 1181
p.val [1, 38]: 1.35E−06
Score [1, 39]: 1115
p.val [1, 39]: 0
Score [1, 40]: 578.6
p.val [1, 40]: 7.17E−11
Score [1, 41]: 595.3
p.val [1, 41]: 0
Score [2, 42]: 87.3
p.val [2, 42]: 0.00322
Score [2, 43]: −19.11
p.val [2, 43]: 0.002737
Score [2, 44]: −25.77
p.val [2, 44]: 0.0004201
Score [2, 45]: −20.11
p.val [2, 45]: 0.001385
Score [2, 46]: −21.51
p.val [2, 46]: 0.002538
Score [2, 47]: 23.19
p.val [2, 47]: 0.002214
Score [2, 48]: 62.69
p.val [2, 48]: 0.002286
Score [2, 49]: 28.25
p.val [2, 49]: 0.003043
Score [2, 50]: 45
p.val [2, 50]: 0.002587
Score [2, 51]: 32.83
p.val [2, 51]: 8.43E−05
Score [2, 52]: 47.25
p.val [2, 52]: 4.70E−06
Score [2, 53]: 84.62
p.val [2, 53]: 0.0002869
Score [2, 54]: 90.02
p.val [2, 54]: 0.009061
Score [2, 55]: 69.44
p.val [2, 55]: 0.0001417
Score [2, 56]: 77.38
p.val [2, 56]: 0.001966
Score [2, 57]: 64.23
p.val [2, 57]: 9.88E−07
Score [2, 58]: 73.42
p.val [2, 58]: 0.0009808
Score [2, 59]: 33.13
p.val [2, 59]: 0.0001427
Score [2, 60]: 55.17
p.val [2, 60]: 0.0005577
Score [2, 61]: 35.18
p.val [2, 61]: 0.00875
Score [2, 62]: 45.41
p.val [2, 62]: 0.0002875
Score [2, 63]: 38.05
p.val [2, 63]: 4.66E−09
Score [2, 64]: 32.43
p.val [2, 64]: 1.24E−12
Score [2, 65]: 64.46
p.val [2, 65]: 4.41E−12
Score [2, 66]: 30.54
p.val [2, 66]: 0.009388
Score [2, 67]: 57.94
p.val [2, 67]: 3.98E−08
